In article PMC12606616, “Synthesis, Characterization, and In Vitro and In Silico Studies of New Triazole Derivatives as Aromatase Inhibitors” (Medicinal Chemistry (Shariqah (United Arab Emirates), 2024) one finds IC50 and DNA synthesis inhibition data, which are given here for four compounds.

Test [1] has as its system MCF-7 (breast cancer cell). In words: MTT cytotoxicity assay, MCF-7. As to conditions: Homo sapiens, MCF7; 24-hour MTT, MCF-7 cell line; read-out: IC50 against MCF-7. It is filed as cell-based. The procedure: (§1) Cytotoxicity studies were carried out using the MTT method, based on the principle of forming purple formazan salt. The MTT procedure was performed using a CO2 incubator during a 24-hour incubation period, as described in our previous publications. The results were detected with a microplate reader.
(§2) For activity studies, the 24-hour MTT procedure was applied. A549 (Lung cancer cell) (ATCC-CRM-CCL-185), MCF-7 (breast cancer cell) (ATCC-HTB-22), and NIH3T3 (normal fibroblast cell) (ATCC-CRL-1658) were used. Looking at the activity results, compound 4d is promising. […] The value shown against the MCF-7 cell line is especially important. Therefore, compound 4d was subjected to the aromatase enzyme inhibition test in vitro. When the structure of compound 4d was examined, unlike other compounds, it carried a nitro substitution in the fourth position of the phenyl ring.
On the technique in general: Formazan colour is commonly taken as a measure of viable cells.

The test system of test [2] is NIH3T3 (normal fibroblast cell). In words: MTT cytotoxicity assay, NIH3T3 healthy cell line. The format is cell-based. Particulars: Mus musculus, 24-hour MTT, read-out: IC50 against NIH3T3. The protocol:
as §1, §2

Test [3] deals with A549 (Lung cancer cell). Briefly: MTT cytotoxicity assay, A549. The format is cell-based. As to conditions: Homo sapiens; 24-hour MTT, A549 cell line; read-out: IC50 against A549. The protocol:
as §1, §2

Test [4] concerns DNA synthesis. Briefly: BrdU analysis (DNA synthesis inhibition). The format is cell-based. The protocol:
Three different incubation periods were selected for the experiment, which was carried out according to the kit procedure. (BioVision, BrdU Cell Proliferation Assay Kit (Fluorometric)). Test results performed at 24-hour, 48-hour, and 72-hour periods were based on fluorimetric measurement of the color change caused by the addition of the stop solution. It enables us to find out where the anticancer effect of anticancer compounds originates from. In other words, the following question persists: by affecting which phase in the cell cycle is DNA synthesis inhibited? BrdU analysis is important to find the answer to this question.
With the Brdu studies, the potential of compound 4d to inhibit DNA synthesis was examined in 24-, 48- and 72-hour periods. […] Since DNA synthesis occurs in the […] of the cell cycle, it would be a correct approach to say that the compounds affect the G2 phase.

The target of test [5] is T1, Aromatase (CYP19A) (Homo sapiens, UniProt P11511).
T1 construct: purchased BioVision
T1 sequence (P11511 1-503): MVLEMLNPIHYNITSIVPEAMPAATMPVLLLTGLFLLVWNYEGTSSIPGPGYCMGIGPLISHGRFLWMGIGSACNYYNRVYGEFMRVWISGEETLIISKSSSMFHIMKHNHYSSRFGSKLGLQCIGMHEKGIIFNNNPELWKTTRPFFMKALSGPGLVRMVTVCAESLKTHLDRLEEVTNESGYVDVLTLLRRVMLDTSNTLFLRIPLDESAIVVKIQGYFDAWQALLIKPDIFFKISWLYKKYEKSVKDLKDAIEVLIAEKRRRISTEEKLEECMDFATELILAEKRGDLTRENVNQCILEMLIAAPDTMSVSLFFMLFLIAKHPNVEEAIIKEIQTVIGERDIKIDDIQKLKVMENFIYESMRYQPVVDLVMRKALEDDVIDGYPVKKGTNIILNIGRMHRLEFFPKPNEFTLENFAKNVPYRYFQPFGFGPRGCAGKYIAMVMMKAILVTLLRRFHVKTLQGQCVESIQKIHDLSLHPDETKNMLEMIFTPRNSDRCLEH
In words: Aromatase (CYP19A) inhibitor screening kit (fluorometric). It is filed as biochemical. Particulars: read-out: IC50 aromatase enzyme inhibition. The protocol: In the experiment performed according to the kit procedure, IC50 values of the compound were calculated from the results obtained with the help of a microplate reader (BioVision, Aromatase (CYP19A) Inhibitor Screening Kit (Fluorometric)).

Bounds are passed on as bounds.

In the case of `CCn1c(SCC(=O)c2ccc(Cl)cc2Cl)nnc1-c1[nH]cnc1C` [Compound 4j], the IC50 – broadly, the concentration that gives 50% inhibition – amounted to 28.9 µM in test [1], 18.4 µM in test [2] and 66.1 µM in test [3].

For `CCn1c(SCC(=O)c2ccc(F)cc2F)nnc1-c1[nH]cnc1C` [Compound 4i], the figures for the IC50 in test [1], in test [2] and in test [3] were 64.4 µM, 27.2 µM and 86.2 µM, respectively.

Regarding `CCn1c(SCC(=O)c2ccc(C)cc2C)nnc1-c1[nH]cnc1C` [Compound 4h], the IC50 in test [1] was more than 100 µM; in test [2] it was 27.2 µM; in test [3], 17.2 µM.

As for `CCn1c(SCC(=O)c2ccc([N+](=O)[O-])cc2)nnc1-c1nc[nH]c1C` [Compound 4d, 2-((4-ethyl-5-(5-methyl-1H-imidazol-4-yl)-4H-1,2,4-triazol-3-yl)thio)-1-(4-nitrophenyl) ethan-1-one], the DNA synthesis inhibition in test [4] (24-hour incubation, 2xIC50 dose) was determined as 63.3%; in test [4] (24-hour incubation, IC50/2 dose) it was 16.1%; in test [4] (24-hour incubation, IC50 dose), 28.1%; in test [4] (48-hour incubation, 2xIC50 dose), 79.0%; in test [4] (48-hour incubation, IC50/2 dose), 40.4%; in test [4] (48-hour incubation, IC50 dose), 77.5%. Moreover, the DNA synthesis inhibition in test [4] (72-hour incubation, 2xIC50 dose) turned out to be 92.4%; in test [4] (72-hour incubation, IC50/2 dose), 77.8%; in test [4] (72-hour incubation, IC50 dose), 80.6%. The IC50 in test [1] is 6.73 µM; in test [2], 13.2 µM; in test [3], 17.2 µM; in test [5], 0.097 µM.
